Measured values reported in paper PMC7377361, “Pressurized DNA state inside herpes capsids—A novel antiviral target” (PLoS Pathogens, 2020).
Where no end group is shown, it is not given here.

Tests used:
free dsDNA = assay: SAXS of free (bulk) DNA condensed by added compound; conditions: free dsDNA in TM-buffer, N/P ratio 1.5, 15, 23 and 37°C
Excerpt: To determine if our DNA condensing compounds target pressurized intracapsid DNA in HSV-1 virions, we developed a three-step SAXS assay. In the first step, we confirmed the ability of compounds DAB-Am-4, bPEI 600, and Arg^5+ to condense the dsDNA in solution. We measured DNA-DNA spacing (ds) in bulk DNA solution in TM-buffer (i.e. free DNA without the capsid), where DNA is condensed by the added compound. This bulk DNA ds-measurement allows for quick prescreening with an in-house SAXS to determine if compounds are capable of binding to dsDNA and reducing DNA-DNA spacing below the physiologic ds-value for DNA packaged in a viral capsid (ds* = 31Å for HSV-1). […] The Bragg spacing, dBr, and the actual distance between helices, ds, are related by ds = 2dBr/sqrt(3) (see details in Materials and Methods). […] Compound concentrations were scaled proportionally with DNA concentration in the sample to correspond to the N/P ratio of 1.5, where N provides the number of positively charged amine groups on the polyamine compound, and P provides the number of negatively charged phosphate groups on the DNA. An N/P ratio of ~1–1.5 was previously shown to be sufficient for DNA condensation with polycationic amines.
For bulk DNA measurements with in-house SAXS, concentrated polycation solutions were added to 1 mg/mL free DNA in small increments of concentration. […]

[1] = Cytotoxicity assay in uninfected HFF-1 cells; conditions: human
Protocol: In parallel, for each DNA condensing compound, we determined the cytotoxicity concentration (CC50 value) using standard in vitro cellular replication assays in human foreskin fibroblast (HFF) cells (used as a standard for herpesvirus replication in vitro assays for antiviral compound tests)[48]. Cytotoxicity assays were performed on a parallel set of six-well plates containing confluent monolayers of HFF-1 cells at the same cell amount as used for antiviral plaque reduction assays for EC50 value determination, but cells were uninfected[48].
Cytotoxicity assays were performed on a parallel set of six-well plates containing HFF-1 cells that received the same compound concentrations as used for the antiviral assays but remained uninfected. […]
Each compound was evaluated in a standard cytotoxicity assay by standard methods [100]. […] The optical density was then determined at 550 nm and CC50 values were interpolated from the experimental data.
The inhibition of either Vero cell or HFF-1 cell proliferation was used to refine estimates of cytotoxicity for the compounds and was performed according to standard procedures [101]. […] The plates were incubated for 72 h at 37°C; the cells were then dislodged with trypsin and counted on a Beckman Coulter Counter. […]

[2] = In vivo toxicity studies in mice (NIH/NIAID preclinical service); conditions: for %Lymphocyte / Hematocrit / WBC / AST / Alb:Glob Ratio / Albumin / Amylase / Bile Acids / Cholesterol / Creatine Kinase / GGT / Globin / Total Protein / Triglyceride / BUN / Ca:Phos Ratio / Calcium / Chloride / Glucose / K / Na / Na:K Ratio / Phosphorus / Uric Acid: Mean; for %Lymphocyte / Hematocrit / WBC: CBC (n=1-2); for AST / Alb:Glob Ratio / Albumin / Amylase / Bile Acids / Cholesterol / Creatine Kinase / GGT / Globin / Total Protein / Triglyceride: LIVER (n=5); for BUN / Ca:Phos Ratio / Calcium / Chloride / Glucose / K / Na / Na:K Ratio / Phosphorus / Uric Acid: RENAL (n=5)
Protocol: A control group was treated with PBS. […] No signs of distress or significant weight loss were observed during the 4 days of treatment. […]
B. In vivo toxicity studies in mice for bPEI 600 and DAB-Am-4. Experiments were conducted through NIAID/NIH preclinical service agreement No HHSN272201700017I/ […]
Procedures and Endpoints:
1- Baseline weights of all mice
2- IP treatment (twice a day, for 4 days)
3- Daily assessment of weights and condition
4- All animals sacrificed the following morning after the last evening treatment 5- Blood samples collected by IC stick for lab tests (liver, spleen and blood profiles) 6- Internal organs examined for signs of gross tissue toxicity
1. Toxicity evaluation of bPEI 600 Da in mice.
A toxicity screen was performed in uninfected mice treated with 3 doses of bPEI 600 Da, administered for 4 days. In this study, 3 doses of 5, 10 and 25 mg/kg/day were administered twice daily IP for 4 days (n=4/group). A control group was treated with the vehicle (PBS). The mice were examined daily and the weights and general condition were recorded daily. To examine liver, renal and blood function parameters, blood samples were obtained by intracardiac puncture at the end of the study (the following day after last dose) and the mice were sacrificed to examine the internal organs for signs of gross tissue toxicity.
The weights were recorded
In order to confirm the results of the lab results obtained in the toxicity study, a second group of slightly larger mice were treated with the high and the low doses of bPEI 600 Da (25 mg/kg and 5 mg/kg, n=6/group) and the vehicle control (PBS, n=4) for 4 days. Blood samples were collected at the end of the study for liver and renal chemistry profiles. The results are shown in the next […]
REN AL PBS 5 mg/kg 25 mg/kg
LIVER PBS 5 mg/kg 25 mg/kg
Al b:Gl ob R a ti o 1 1 1 […]
obtained from the second group of mice treated with bPEI 600 Da for 4 days.
No signs of distress or significant weight loss were ere observed during the […]
show significant differences with the results obtained in the PBS treated group of control mice.
Statistical analysis: Means were compared by Student’s t test, and mortality was compared by Fisher’s exact test, where applicable.
Ethics regulation of Laboratory animals: Animals were housed in facilities approved by the Association for Assessment and Accreditation of Laboratory Animal Care and Use Committee
2. Toxicity evaluation of DAB-Am-4 in mice.
A toxicity screen in uninfected mice was performed. 2 doses of 5 and 25 mg/kg/day were administered twice daily IP for 4 days (n=6/group). A control group was treated with the vehicle […]
The mice were examined daily and the weights and general condition were recorded. […]

[3] = mice, 25 mg/kg/day twice daily IP, 4 days
[4] = mice, 5 mg/kg/day twice daily IP, 4 days

Excerpt for MEF cell line: We also determined cytotoxicity in the murine MEF cell line, relevant to animal studies.

Q: With RRRRR [Arg^5+] as the compound, how does the “DNA-DNA interaxial spacing ds” value (free dsDNA) read?
A: The value was “below 31 Å”.

Q: What about the CC50 at 7 days [1] of the same compound?
A: Its CC50 at 7 days is 83 µM.

Q: Which “DNA-DNA interaxial spacing ds” value (free dsDNA) does the source give for `NCCCN(CCCN)CCCCN(CCCN)CCCN` [DAB-Am-4] here?
A: The value was “below 31 Å”.

Q: What about the weight loss [2, 3] of the same compound?
A: The weight loss was ~ 10%.

Q: And the “weight loss from baseline” value [2, 3]?
A: The value was 2.0 g.

Q: And the tolerability ([2]; mice, 5, 10 and 25 mg/kg/day, twice daily IP, 4 days)?
A: The tolerability was “tolerated well”.

Q: What about the “signs of acute toxicity (lab tests)” value ([2]; mice, 5 and 25 mg/kg/day DAB-Am-4, 5 mg/kg/day DAB-Am-8) of the same compound?
A: Its value is “no conclusive signs of acute toxicity”.

Q: And the “signs of distress during the observation period” value ([2]; mice, low dose 5 mg/kg/day)?
A: Its value is “no significant signs”.

Q: What about the “%Lymphocyte” value [2, 4] of the same compound?
A: Its value is 67%.

Q: And the Hematocrit [2, 4]?
A: Its Hematocrit is 43.

Q: And the WBC [2, 4]?
A: Its WBC is 7.

Q: What about the AST [2, 4] of the same compound?
A: The AST was 402.

Q: And the “Alb:Glob Ratio” value [2, 4]?
A: The value was 1.

Q: And the Albumin [2, 4]?
A: Its Albumin is 3.

Q: And the Amylase [2, 4]?
A: Its Amylase is 792.

Q: What about the “Bile Acids” value [2, 4] of the same compound?
A: The value was 134.

Q: And the Cholesterol [2, 4]?
A: The Cholesterol was 91.

Q: What about the “Creatine Kinase” value [2, 4] of the same compound?
A: The value was 2340.

Q: And the GGT [2, 4]?
A: Its GGT is under 1.

Q: What about the Globin [2, 4] of the same compound?
A: The Globin was 2.

Q: What about the “Total Protein” value [2, 4] of the same compound?
A: Its value is 5.

Q: And the Triglyceride [2, 4]?
A: Its Triglyceride is 118.

Q: What about the BUN [2, 4] of the same compound?
A: The BUN was 35.

Q: What about the “Ca:Phos Ratio” value [2, 4] of the same compound?
A: Its value is 1.

Q: And the Calcium [2, 4]?
A: Its Calcium is 9.

Q: And the Chloride [2, 4]?
A: The Chloride was 104.

Q: And the Glucose [2, 4]?
A: The Glucose was 221.

Q: What about the K [2, 4] of the same compound?
A: Its K is 7.

Q: And the Na [2, 4]?
A: Its Na is 143.

Q: What about the “Na:K Ratio” value [2, 4] of the same compound?
A: Its value is 22.

Q: And the Phosphorus [2, 4]?
A: Its Phosphorus is 11.

Q: What about the “Uric Acid” value [2, 4] of the same compound?
A: Its value is 3.

Q: What about the “%Lymphocyte” value [2, 3] of the same compound?
A: Its value is 61%.

Q: And the Hematocrit [2, 3]?
A: The Hematocrit was 36.

Q: And the WBC [2, 3]?
A: The WBC was 4.

Q: And the AST [2, 3]?
A: Its AST is 414.

Q: And the “Alb:Glob Ratio” value [2, 3]?
A: Its value is 1.

Q: And the Albumin [2, 3]?
A: The Albumin was 3.

Q: And the Amylase [2, 3]?
A: The Amylase was 760.

Q: And the “Bile Acids” value [2, 3]?
A: The value was 13.

Q: And the Cholesterol [2, 3]?
A: The Cholesterol was 85.

Q: What about the “Creatine Kinase” value [2, 3] of the same compound?
A: Its value is 3089.

Q: And the GGT [2, 3]?
A: The GGT was under 1.

Q: And the Globin [2, 3]?
A: The Globin was 2.

Q: What about the “Total Protein” value [2, 3] of the same compound?
A: The value was 5.

Q: And the Triglyceride [2, 3]?
A: Its Triglyceride is 149.

Q: And the BUN [2, 3]?
A: The BUN was 36.

Q: And the “Ca:Phos Ratio” value [2, 3]?
A: Its value is 1.

Q: And the Calcium [2, 3]?
A: Its Calcium is 9.

Q: What about the Chloride [2, 3] of the same compound?
A: Its Chloride is 106.

Q: What about the Glucose [2, 3] of the same compound?
A: The Glucose was 182.

Q: And the K [2, 3]?
A: Its K is 6.

Q: What about the Na [2, 3] of the same compound?
A: Its Na is 147.

Q: What about the “Na:K Ratio” value [2, 3] of the same compound?
A: The value was 25.

Q: And the Phosphorus [2, 3]?
A: Its Phosphorus is 9.

Q: And the “Uric Acid” value [2, 3]?
A: The value was 5.

Q: And the CC50 (HFF-1 cells)?
A: Its CC50 is 15 µM.

Q: What about the CC50 (MEF cell line) of the same compound?
A: The CC50 was 22 µM.
